Source: patent publication US7932278B2, “2-aminoethoxyacetic acid derivatives and their use” (Bayer Schering Pharma Aktiengesellschaft, priority 2005, dated 2011)
pIC50: −log10 of the molar value. Structures can show the parent of a compound that is named as a salt.

These compounds were tested against human factor Xa (FXa) (Homo sapiens, UniProt P00742) (assay: Determination of the factor Xa inhibition (chromogenic substrate)). Settings: human FXa 0.5 nmol/l, 150 μmol/l Pefachrome FXa, 25° C., extinction at 405 nm.
human factor Xa (FXa), sequence (P00742 235-488 limits assumed): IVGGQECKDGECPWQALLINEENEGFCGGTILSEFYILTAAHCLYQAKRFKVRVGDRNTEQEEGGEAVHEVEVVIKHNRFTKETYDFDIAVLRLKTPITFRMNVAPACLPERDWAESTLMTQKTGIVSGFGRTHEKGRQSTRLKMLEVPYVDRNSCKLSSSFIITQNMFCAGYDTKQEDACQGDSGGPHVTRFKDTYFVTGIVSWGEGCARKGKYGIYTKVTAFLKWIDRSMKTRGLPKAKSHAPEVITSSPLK
human factor Xa (FXa), sequence (P00742 41-179 partner limits assumed): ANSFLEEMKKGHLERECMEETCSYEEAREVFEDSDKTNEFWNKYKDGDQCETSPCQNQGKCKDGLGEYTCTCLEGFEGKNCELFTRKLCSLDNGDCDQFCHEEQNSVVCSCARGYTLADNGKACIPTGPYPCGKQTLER
Type: biochemical
Method: a. 1) Determination of the Factor Xa Inhibition:
The enzymatic action of human factor Xa (FXa) is measured using the conversion of a chromogenic substrate specific for FXa. Factor Xa cleaves p-nitroaniline from the chromogenic substrate. The determinations are carried out in microtiter plates as follows:
The test substances, in various concentrations, are dissolved in DMSO and incubated for 10 minutes at 25° C. with human FXa (0.5 nmol/l dissolved in 50 mmol/l of tris buffer [C,C,C-tris(hydroxymethyl)aminomethane], 150 mmol/l of NaCl, 0.1% BSA [bovine serum albumin], pH=8.3). Pure DMSO is used as control. The chromogenic substrate (150 μmol/l Pefachrome® FXa from Pentapharm) is then added. After an incubation time of 20 minutes at 25° C., the extinction at 405 nm is determined.

pIC50	SMILES
7.23	CC(C)CNC(=O)N(CCOCC(=O)O)c1ccc(N2C[C@H](CNC(=O)c3ccc(Cl)s3)OC2=O)cc1 [Example 4, {2-[{4-[(5S)-5-({[(5-Chloro-2-thienyl)carbonyl]amino}methyl)-2-oxo-1,3-oxazolidin-3-yl]phenyl}-(isobutylcarbamoyl)amino]ethoxy}acetic acid]
7.18	O=C(O)COCCN(C(=O)c1ccc(Cl)s1)c1ccc(N2C[C@H](CNC(=O)c3ccc(Cl)s3)OC2=O)cc1 [Example 3, [2-([(5-Chloro-2-thienyl)carbonyl]{4-[(5S)-5-({[(5-chloro-2-thienyl)carbonyl]amino}methyl)-2-oxo-1,3-oxazolidin-3-yl]phenyl}amino)ethoxy]acetic acid]
7.49	O=C(O)COCCNc1ccc(N2C[C@H](CNC(=O)c3ccc(Cl)s3)OC2=O)cc1 [Example 1, 2-({4-[(5S)-5-({[(5-Chloro-2-thienyl)carbonyl]amino}methyl)-2-oxo-1,3-oxazolidin-3-yl]phenyl}-amino)ethoxy]acetic acid hydrochloride]
